Results: patent publication US5208240A, “8-substituted purines as selective adenosine receptor agents” (Merrell Dow Pharmaceuticals Inc., priority 1991, dated 1993)

Assays:
A2-adenosine receptor = target: T1, A2-adenosine receptor (Rattus norvegicus, UniProt P30543); assay: Adenosine A2 receptor binding (method of Bruns et al.)
T1 construct: from tissue
Description: (§1) IC50 values for A1 -adenosine receptor binding is determined according to the method of Goodman et al. [Mol. Pharmacol. 21:329-35, 1982]. IC50 values for A2 -adenosine receptor binding is determined according to the method of Bruns et al. [Mol. Pharmacol. 29:331-46, 1986].

A1-adenosine receptor = assay: Adenosine A1 receptor binding (method of Goodman et al.)
Description: as §1

T1 sequence (P30543 whole entry): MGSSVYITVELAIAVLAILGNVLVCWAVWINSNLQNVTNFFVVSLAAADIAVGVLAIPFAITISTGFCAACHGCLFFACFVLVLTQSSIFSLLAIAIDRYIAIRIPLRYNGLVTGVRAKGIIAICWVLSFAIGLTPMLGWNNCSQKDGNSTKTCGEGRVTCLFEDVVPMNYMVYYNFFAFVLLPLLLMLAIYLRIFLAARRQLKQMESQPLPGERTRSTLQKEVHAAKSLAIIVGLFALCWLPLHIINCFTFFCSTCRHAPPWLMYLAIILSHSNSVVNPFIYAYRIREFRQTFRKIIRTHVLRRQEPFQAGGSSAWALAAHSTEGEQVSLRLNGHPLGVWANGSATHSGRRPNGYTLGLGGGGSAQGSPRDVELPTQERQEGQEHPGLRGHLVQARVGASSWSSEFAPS

Row | SMILES | IC50 (A2-adenosine receptor) [nM] | IC50 (A1-adenosine receptor) [nM]
1 | CCCn1c(=O)c2nc(C(C)Cc3ccc(OCC(=O)NCCN)cc3)[nH]c2n(CCC)c1=O (single isomer, unassigned; (+)) [Compound 101993, (+)-N (2-Aminoethyl)-2-[4-[2-(2,3,6,9-tetrahydro-1,3-dipropyl-2,6-dioxo-1H-purin-8-yl)propyl]phenoxy]-acetamide] | 1800 | 60
2 | CCCn1c(=O)c2nc(C(CC)c3ccc(OCC(=O)O)cc3)[nH]c2n(CCC)c1=O (stereo not drawn) [Compound 101673, 2-[4-[1-(2,3,6,9-Tetrahydro-1,3-dipropyl-2,6-dioxo-1H-purin-8-yl)propyl]phenoxy]acetic acid] | > 10000 | 1180
3 | CCCn1c(=O)c2nc(C(C)Cc3ccc(OCC(=O)O)cc3)[nH]c2n(CCC)c1=O (stereo not drawn) [Compound 101699, 2-[4-[2-(2,3,6,9-Tetrahydro-1,3-dipropyl-2,6-dioxo-1H-purin-8-yl)propyl]phenoxy]acetic acid] | 5700 | 327

The remaining molecules from weak to strong by IC50 (A2-adenosine receptor), led by results:

Row | IC50 (A2-adenosine receptor) [nM] | IC50 (A1-adenosine receptor) [nM] | SMILES
4 | 300 | 10 | CCCn1c(=O)c2nc(C(C)Cc3ccc(OCC(=O)NCCN)cc3)[nH]c2n(CCC)c1=O (single isomer, unassigned; (-)) [Compound 100991, (-)-N-(2-Aminoethyl)-2-[4-[2-(2,3,6,9-tetrahydro-1,3-dipropyl-2,6-dioxo-1H-purin-8-yl)propyl]phenoxy]-acetamide]
5 | 60 | 4.4 | CCCn1c(=O)c2nc(C(CC)c3ccc(OCC(=O)NCCN)cc3)[nH]c2n(CCC)c1=O (stereo not drawn) [Compound 102130, N-(2Aminoethyl)-2-[4-[1-(2,3,6,9-tetrahydro-1,3-dipropyl-2,6-dioxo-1H-purin-8-yl)propyl]phenoxy]-acetamide]
6 | 36 | 14 | CCCn1c(=O)c2nc(C(C)Cc3ccc(OCC(=O)NCCN)cc3)[nH]c2n(CCC)c1=O (stereo not drawn) [Compound 101345, N-(2-Aminoethyl)-2-[4-[2-(2,3,6,9-tetrahydro-1,3-dipropyl-2,6-dioxo-1H-purin-8-yl)propyl]phenoxy]-acetamide]
